We go through ten compounds from US11986542B2, “Composition for enhancing hair fiber properties” (The Procter & Gamble Company, priority 2016, dated 2024).

Data set [1] is described as follows: Log P (octanol-water partition coefficient).
From the text: “Log P” means octanol-water partition coefficient and is a physical property that describes a chemical's lipophilic and hydrophophilic characteristics. Log P is the logarithm of the ratio of a chemical's concentration in the octanol phase to its concentration in the aqueous phase of a two-phase system at equilibrium. The partition coefficient is a ratio of concentrations of un-ionized compound between the two solutions. Log P=Log 10 (partition coefficient). Partition coefficient=[organic]/[aqueous], where [organic] is the concentration of the compound of interest in the organic solvent (e.g., octanol), and [aqueous] is the concentration of the compound of interest in the water phase.
Data set [2] in a line: Combing force for dry hair, aqueous/ethanol treatment. The settings on record: Table 1/FIG. 1; moderately oxidatively-damaged hair; aqueous/ethanol formulation, 2.5% total conditioning agent; peak force. An excerpt: A moderately oxidatively-damaged hair switch or physically damaged virgin hair switch (with weight of 4 gram and length of 8 inches) is placed in an apparatus containing two combs separated by a vertical distance of 6 inches. This double combing apparatus is attached to an Instron Model 5564. The switch is combed 5 times with a fine-tooth comb and hanged onto the Instron load cell. Then, the hair switch is placed in the double comb apparatus. The Instron pulls the hair vertically at a rate of 10 mm/min until the hair switch clears the final comb. The peak force as the switch passes through the top comb is reported. […] EtOH/H2O Leave-on Treatments Single material mixtures: 500 mg of a lipid or a lipid enhancing agent is weighed into a 20 mL vial. 19.5 g of 50/50(v/v) ethanol water mixture is then added to the vial and capped. The mixture is then agitated for 30 seconds. Shampoo Washing Protocol: An amount of 0.10 g of clarifying shampoo per gram of hair is spread via a syringe onto separate hair switch. Each application consists of adding shampoo to the hair, milking for 30 seconds followed by rinsing for 30 seconds. Shampoo is then reapplied (0.[…]), milked for 30 seconds and rinsed for 30 seconds. Leave-on Treatments with Aqueous/Ethanolic Lipid Compositions a. […] The combing force is measured for each switch and an average for the three switches is calculated. […]

Data set [3] in a line: Combing force for dry hair, aqueous/ethanol leave-on treatment. The settings on record: Table 2/FIG. 2; physically damaged virgin hair; aqueous/ethanol leave-on formulation, 2.5% total conditioning agent. The source says: (§1) This double combing apparatus is attached to an Instron Model 5564. The switch is combed 5 times with a fine-tooth comb and hanged onto the Instron load cell. Then, the hair switch is placed in the double comb apparatus. The Instron pulls the hair vertically at a rate of 10 mm/min until the hair switch clears the final comb. The peak force as the switch passes through the top comb is reported.

Data set [4] in a line: Combing force after leave-on hair treatment using neat material. The settings on record: 0.4 ml neat material on 4 g switch, average of three switches; for Combing force, 1 Wash (gf): after 1 clarifying shampoo wash; for Combing force, 5 Washes (gf): after 5 clarifying shampoo washes.
From the text: as §1
The treatment is repeated to two additional switches. The treated hair switches are allowed to rest for 24 hours under controlled temperature and relative humidity conditions (27° C. and 50% RH). After this time period, each hair switch is washed with a clarifying shampoo (see shampoo washing protocol below) and allowed to air dry for 24 hours under controlled temperature and relative humidity conditions (27° C. and 50% RH). The combing force is measured for each switch and an average for the three switches is calculated. […] Linoleic acid • b.

A word on the logP: it is a log measure of how a compound divides between an organic and an aqueous phase. A low value points to lower lipophilicity.

Compound `CCCCCCCC/C=C\CCCCCCCCCCCC(=O)O` [Erucic acid, reference compound] registered a lipophilicity (logP) in data set [1] (octanol/water) of 9.

With `CCCCCCCC/C=C\CCCCCCCC(=O)OCCO` [Ethyleneglycol monooleate], the log partition coefficient (logP) in data set [1] (octanol/water) was 6.9.

`CCCCCCCC/C=C\CCCCCCCC(=O)OCC(O)CO` (stereo not drawn) [Glyceryl alpha-monooleate] showed a log partition coefficient (logP) in data set [1] (octanol/water) of 6.3. The “Combing Force (gf)” value in data set [2] was 157 gf; in data set [3], 268 gf. In data set [1] (octanol/water), `CCCCC/C=C\C/C=C\CCCCCCCC(=O)O` [Linoleic Acid, reference compound] had a logP of 6.4. In data set [4], the “Combing force, 1 Wash (gf)” value is reported as 27 gf and the “Combing force, 5 Washes (gf)” value turned out to be 96 gf. In the case of `CCCCCCCC/C=C\CCCCCCCC(=O)OC` [Methyl Oleate, reference compound], the logP in data set [1] (octanol/water) was 8.

Take `CCCCCCCC/C=C\CCCCCCCC(=O)O` [Oleic acid]: the lipophilicity (logP) in data set [1] (octanol/water) was 7. Moreover, in data set [4], the “Combing force, 1 Wash (gf)” value is listed as 24 gf and the “Combing force, 5 Washes (gf)” value is 58 gf. Moreover, the “Combing Force (gf)” value in data set [2] was determined as 161 gf.

For the compound `CCCCCCCC/C=C\CCCCCCCCO` [Oleyl Alcohol], the logP in data set [1] (octanol/water) was 7. For the same compound, the “Combing Force (gf)” value in data set [3] was determined as 246 gf. Take `CCCCCC/C=C\CCCCCCCC(=O)O` [Palmitoleic Acid]: the logP in data set [1] (octanol/water) was 6.6. Besides, the “Combing Force (gf)” value in data set [3] came to 76 gf. On to `CCCCCCCCCCCCCCCCCC(=O)O` [Stearic Acid, reference compound], for which the log partition coefficient (logP) in data set [1] (octanol/water) stood at 8. In the case of “Propyleneglycol monooleate [reference compound]”, in data set [1] (Table 3), the logP was 7.5.
